Results from patent US4496545A, “Nonapeptide for treating addictive drug withdrawal conditions” (priority 1981, dated 1985).
Where no end group is shown, it is not given here.

Columns and labels:
morphine-dependent mouse = experiment: Inhibition of the naloxone-triggered withdrawal leaps of the morphine-dependent mouse; assay type: in vivo; conditions: 30 mg/kg s.c. 30 minutes before naloxone; median leaps vs NaCl control
Source text: An opiate-dependent organism for example reacts the same irrespective of species on the sudden withdrawal of the opiate (e.g. morphine) with withdrawal symptoms, i.e. addictive drug withdrawal conditions. In the course of this occurrence central and peripheral symptoms appear, of which the most striking in the mouse is a series of violent leaps (the so-called "jumping"). The number of leaps per time interval is proportional to the intensity of the withdrawal effect and their enumeration enables the incident to be evaluated quantitatively.
In order to produce the dependence a compressed tablet, which contained 75 mg of morphine (base) and which progressively dissolved with continuous liberation of the morphine, was implanted under the dorsal skin of male mice (weight about 22 g). On the third day after the implantation the morphine antagonist naloxone in a dosage of 0.1 mg/kg was administered subcutaneously to the animals in order to trigger off the withdrawal leaps.
After the injection, the leaps of each individual animal were counted for 20 minutes. The group median value was calculated from the total leaps of 8 animals, which formed a group. […] The dosage median values and, respectively, control median values were calculated from all individual values per dosage and, respectively, the positive and negative controls.

rats [1] = experiment: Toxicological study, daily intravenous administration for 4 weeks, rats; conditions: maximum dosage (6 mg/kg i.v. daily for 4 weeks)
Method: (§1) Toxicological studies were carried out on 12 male and 12 female rats as well as on 3 male and 3 female dogs per dosage. For this purpose DSIP was dissolved in physiological sodium chloride solution and administered intravenously daily for 4 weeks in the dosages of 0.6, 1.8 and 6 mg/kg. At an interval of 2 weeks during these studies the hematological, hematochemical and the urine status were determined, and the electrocardiogram was recorded and analyzed.
(§2) At the termination of the aforementioned studies all animals were painlessly killed and there followed the autopsy besides the removal of organ samples for histological investigations.

rats [2] = conditions: rat, in vivo
Method: as §1, §2

dogs [3] = conditions: dog, in vivo
Method: as §1, §2

[4] = system: alcoholic or methadone- or heroin-dependent patients; conditions: human, in vivo
Method: Of the 25 alcoholic patients 8 were on admission already in delirium tremens to a medium to severe degrees. After the first subjective and objective withdrawal signs manifested themselves the patients received up to 4 intravenous infusions of in each case 0.0214 mg/kg of DSIP daily. For this purpose, the substance was dissolved in physiological sodium chloride solution and infused in the course of 5 minutes.
The duration of treatment amounted to a maximum of 3 days.

dogs [5] = experiment: Toxicological study, daily intravenous administration for 4 weeks, dogs; conditions: maximum dosage (6 mg/kg i.v. daily for 4 weeks)
Method: as §1, §2

Compound	% of negative control (morphine-dependent mouse)	Electrocardiogram (rats [1])	Tolerability of the dosages (rats [2])	Tolerability of the dosages (dogs [3])	Tolerance of DSIP: poor [4]	Electrocardiogram (dogs [5])
CN1CC[C@]23c4c5ccc(O)c4O[C@H]2[C@@H](O)C=C[C@H]3[C@H]1C5 [Morphine]	27%					
WAGGDASGE [DSIP, Trp-Ala-Gly-Gly-Asp-Ala-Ser-Gly-Glu]		no changes in the electrocardiogram	tolerated without any side effects	tolerated without any side effects	2 patients	no changes in the electrocardiogram
